# Measurements reported in patent EP3524067B1, “SPRAY-DRIED MIXTURE OF HUMAN MILK OLIGOSACCHARIDES” (Chr. Hansen HMO GmbH, priority 2018, dated 2019).
# Key:
# [1] = Powder particle size by laser diffraction; assay type: physicochemical; design: Size, Mean: unit not given here; conditions: dispersed in isooctane; mean ± standard deviation of 3 measurements
# Method: The powder particle size was assessed by laser diffraction. The system detects scattered and diffracted light by an array of concentrically arranged sensor elements. The software-algorithm is then approximating the particle counts by calculating the z-values of the light intensity values, which arrive at the different sensor elements. The analysis was executed using a SALD-7500 Aggregate Sizer (Shimadzu Corporation, Kyoto, Japan) quantitative laser diffraction system (qLD).
# A small amount (spatula tip) of each sample was dispersed in 2 ml isooctane and homogenized by ultrasonication for five minutes. The dispersion was transferred into a batch cell filled with isooctane and analyzed in manual mode.
# Data acquisition settings were as follows: Signal Averaging Count per Measurement: 128, Signal Accumulation Count: 3, and Interval: 2 seconds.
# Prior to measurement, the system was blanked with isooctane. Each sample dispersion was measured 3 times and the mean values and the standard deviation are reported. Data was evaluated using software WING SALD II version V3.1. Since the refractive index of the sample was unknown, the refractive index of sugar (disaccharide) particles (1.530) was used for determination of size distribution profiles. Size values for mean and median diameter are reported.
# [2] = Differential scanning calorimetry (DSC) of spray-dried human milk oligosaccharides; assay type: physicochemical; conditions: spray-dried powder; for endothermal event, normalized energy / endothermal event, peak temperature: DSC heating scan (first heating scan where stated); for Tg, 1st heating scan / Tg, 2nd heating scan: glass transition temperature; for Tg, 1st heating scan: midpoint of endothermic shift, reheated to 100 °C at 10 K/min; for Tg, 2nd heating scan: second heating cycle, reheated to 150 °C
# Excerpt: Using differential scanning calorimetry (DSC) on a Mettler Toledo 821e (Mettler Toledo, Giessen, Germany) thermal events of spray-dried human milk oligosaccharides, namely 3-fucosyllactose, 6'-sialyllactose, 3'-sialyllactose, lacto-N-tetraose, and spray-dried mixtures of human milk oligosaccharides, a mixture (HMO-Mix I) of 2'-fucosyllactose/lacto-N-tetraose, and a mixture (HMO Mix II) of 2'-fucosyllactose, 3-fucosyllactose, lacto-N-tetraose, 6'-sialyllactose, 3'-sialyllactose, respectively, were determined.
# A Mettler Toledo 821e (Mettler Toledo, Giessen, Germany) was used to determine thermal events of the spray-dried products (glass transition temperature (Tg), further exo- and endothermic events).
# Approximately 25 mg of the spray-dried human milk oligosaccharides were analyzed in crimped Al-crucibles (Mettler Toledo, Giessen, Germany). The samples were cooled to 0 °C with 10 K/min and reheated to 100 °C with a scanning rate of 10 K/min. After cooling down the samples to 0 °C in a second heating cycle, the samples were reheated to 150 °C. The midpoint of the endothermic shift of the baseline during the heating scan was taken as glass transition temperature (Tg). Exothermic and endothermic peaks are reported by means of the peak temperature and the normalized energy of the event.
"Size, Median [1] [µm]","endothermal event, normalized energy [2] [J/g]","endothermal event, peak temperature [2]","endothermal relaxation peak after Tg ([2]; first heating scan, result in words)","Tg, 1st heating scan [2]","Tg, 2nd heating scan [2]",endothermal events ([2]; result in words),"Size, Mean [1]","Tg, 2nd heating scan ([2]; listed as lacto-N-tetraose)",Compound
141,-0.22,77 °C,detected,"47,6 °C","49,6 °C",,,,CC(=O)N[C@H]1[C@H]([C@H](O)[C@H](O)CO)O[C@@](OC[C@H]2O[C@@H](O[C@H]3[C@H](O)[C@@H](O)[C@H](O)O[C@@H]3CO)[C@H](O)[C@@H](O)[C@H]2O)(C(=O)O)C[C@@H]1O [6'-sialyllactose]
122 ± 16.7,,,,"48,8 °C","54,3 °C",No endothermal events were detected,,,CC(=O)N[C@H]1[C@H]([C@H](O)[C@H](O)CO)O[C@@](O[C@H]2[C@@H](O)[C@@H](CO)O[C@@H](O[C@H]3[C@H](O)[C@@H](O)C(O)O[C@@H]3CO)[C@@H]2O)(C(=O)O)C[C@@H]1O (some centres unmarked) [3'-sialyllactose]
141,-6.04,about 89 °C,,"49,9 °C","79,4 °C",,117.3 ± 0.7,about 79 °C,"CC(=O)N[C@H]1[C@H](O[C@H]2[C@@H](O)[C@@H](CO)O[C@@H](O[C@H]3[C@H](O)[C@@H](O)C(O)O[C@@H]3CO)[C@@H]2O)O[C@H](CO)[C@@H](O)[C@@H]1O[C@@H]1O[C@H](CO)[C@H](O)[C@H](O)[C@H]1O (some centres unmarked) [Lacto-N-tetraose, lacto-N-tetraose]"
